We go through 6 molecules from US20030119013A1, “Identification of essential genes of Aspergillus fumigatus and methods of use” (priority 2001, published 2003).

The subject of test [1] is bar-coded strains bearing heterozygous mutations in HIS3, TUB1, ALG7, and ERG11. As to conditions: Saccharomyces cerevisiae, mixed population, challenged with respective compound; cited from earlier work.
The subject of test [2] is invasive aspergillosis (IA). As to conditions: patients with invasive aspergillosis; cited from earlier work.
For test [3], the system named is Aspergillus fumigatus transformed cells containing the integrated PglaA promoter (AfHIS3). Kind of test: Titration against 3-aminotriazole of PglaA-AfHIS3 promoter replacement strain. Format: cell-based. The source says: Aspergillus fumigatus is sensitive to the catalase inhibitor 3-aminotriazole (3-AT), which targets the product of the HIS3 gene. The concentration of 3-AT sufficient to inhibit growth of Aspergillus fumigatus is thusly dependent on the amount of HIS3 gene product present in the cells.
For instance, culturing the transformed cells containing the integrated PglaA promoter in a medium supplemented with different carbon sources or ratios of carbon sources allows the amount of AfHIS3 gene product to be increased or decreased relative to endogenous levels to generate cells that are more or less sensitive to 3-AT based on the amount of HIS3 gene product. It is known, for example, that transcription from the PglaA promoter is induced in the presence of maltose, repressed in the presence of xylose and intermediate levels of activity are detected from cells grown on glucose. By adjusting the ratio of maltose to xylose in the culture medium, the amount of transcription may be titrated, at least in a step-wise manner, to adjust levels of transcript in the cell.

Test [4] deals with AfERG11β knockout strain and AfERG11α knockout strain. Description: Azole sensitivity on agar gradient plates, knockout strains. Format: cell-based, Aspergillus fumigatus. An excerpt:
(§1) Aspergillus fumigatus strains were constructed in which either the AfERG11 gene or the AfERG11β gene had been “knocked out.” Each of these strains was compared to the wild-type Aspergillus fumigatus strain CEA 10 with respect to its sensitivity, as analyzed on agar gradient plates, to two representative azole compounds, ketoconazole and itraconazole.

The subject of test [5] is wild-type Aspergillus fumigatus strain CEA 10. Kind of test: Azole sensitivity on agar gradient plates, wild-type strain. In kind it is cell-based. The following applies: versus AfERG11 and AfERG11β knockout strains.
Text: as §1

In the case of tunicamycin, the “sensitivity of heterozygous drug-target strain compared with other heterozygote bar-coded strains” value in test [1] is on record as “significantly greater sensitivity”.

In the case of `CCCCNC(=O)n1c(NC(=O)OC)nc2ccccc21` [benomyl], the “sensitivity of heterozygous drug-target strain compared with other heterozygote bar-coded strains” value in test [1] is on record as “significantly greater sensitivity”.

Turning to `C[C@@H]1[C@H](O)[C@@H](C)/C=C/C=C/C=C/C=C/C=C/C=C/C=C/[C@H](O[C@@H]2O[C@H](C)[C@@H](O)[C@H](N)[C@@H]2O)C[C@@H]2O[C@](O)(C[C@@H](O)C[C@@H](O)[C@H](O)CC[C@@H](O)C[C@@H](O)CC(=O)O[C@H]1C)C[C@H](O)[C@H]2C(=O)O` [AmB, amphotericin B], the “overall success rate of therapy for IA” value in test [2] was 34%.

As for `OC(Cn1cncn1)(Cn1cncn1)c1ccc(F)cc1F` [fluconazole], the “sensitivity of heterozygous drug-target strain compared with other heterozygote bar-coded strains” value in test [1] is reported as “significantly greater sensitivity”.

As to `Nc1nc[nH]n1` [3-AT, 3-aminotriazole], the “sensitivity of Aspergillus fumigatus to 3-aminotriazole” value in test [3] (Aspergillus fumigatus, general statement) is reported as “sensitive”. For the same molecule, the “resistance in the presence of 3-AT” value in test [3] (cells grown in the presence of maltose (e.g. 2% maltose), PglaA induced) is recorded as “increased resistance”. Further, the “resistance to 3-AT” value in test [3] (cells grown in the presence of xylose (e.g. 1% xylose), PglaA repressed) is “decreased resistance”. For the same molecule, the “sensitivity of heterozygous drug-target strain compared with other heterozygote bar-coded strains” value in test [1] is on record as “significantly greater sensitivity”.

For the molecule `CC(=O)N1CCN(c2ccc(OCC3COC(Cn4ccnc4)(c4ccc(Cl)cc4Cl)O3)cc2)CC1` (stereo not shown) [ketoconazole], the “resistance of AfERG11β knockout strain compared with AfERG11α knockout strain” value in test [4] is listed as “more resistant”. The “resistance of wild-type strain CEA 10 compared with either knockout strain” value in test [5] is “more resistant”.
